According to PMC5522084, “Eg5 inhibitor YL001 induces mitotic arrest and inhibits tumor proliferation” (Oncotarget, 2017):

Assays:
Eg5 motor domain = target: T1, Eg5 motor domain (Homo sapiens, UniProt P52732); assay: SPR assay (Biacore T200); format: binding; conditions: for Binding Level (RU): SPR screening
T1 sequence (P52732 18-359 limits assumed): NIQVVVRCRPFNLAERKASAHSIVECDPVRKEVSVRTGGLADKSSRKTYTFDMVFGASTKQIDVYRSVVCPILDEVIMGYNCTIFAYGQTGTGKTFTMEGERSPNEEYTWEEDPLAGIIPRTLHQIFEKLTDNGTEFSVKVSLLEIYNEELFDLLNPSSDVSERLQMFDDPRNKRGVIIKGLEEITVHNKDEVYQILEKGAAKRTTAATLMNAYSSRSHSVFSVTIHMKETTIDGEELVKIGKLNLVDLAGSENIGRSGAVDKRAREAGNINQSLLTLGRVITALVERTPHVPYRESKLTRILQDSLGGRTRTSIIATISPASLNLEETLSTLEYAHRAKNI
Experimental: Interactions of the Eg5 motor domain and compounds of interest were analyzed using the Biacore T200 system (GE Healthcare, Uppsala, Sweden) at 25°C. Eg5 motor protein obtained as previously described (51) was immobilized on a sensor chip (CM5) using an amine coupling kit (GE Healthcare, Buckinghamshire, UK). […] For binding studies, analytes were applied at corresponding concentrations in running buffer at a flow rate of 30 μL/minute with a contact time of 60 seconds and a dissociation time of 60 seconds. Chip platforms were washed with running buffer and 50% DMSO. Data were analyzed with Biacore evaluation software (T200 Version 1.0) by curve fitting using a steady state 1:1 binding model and a kinetic model.

human cancer cell lines = assay: Antiproliferation screening of 23 selected compounds (Alamar Blue); format: cell-based; conditions: proliferation inhibition
Experimental: (§1) Cytotoxic activities of the compounds of interest were investigated with human cancer cell lines using the Alamar Blue assay. Cells (5 × 10^3 cells/well) were seeded into 96-well plates (Corning, 3603). Various sample concentrations (compounds of interest) were added to each well in duplicate, and incubated at 37°C with 5% CO2 for two days such that cells were in the exponential growth phase at the time of drug addition. Ten microliters of the Alamar Blue Solution (Invitrogen, Alamar Blue) were added to each well and incubated at 37°C for up to 2 hours in a humidified, 5% CO2 atmosphere. After incubation, florescence was measured using a microplate reader (Tecan) at an excitation wavelength of 540 nm and emission of 590 nm. Each inhibitory concentration was measured in triplicate, and averaged data points ± SD are shown. Statistical analysis was carried out with GraphPad Prism 5 and the fifty-percent effective concentration is expressed as EC50.

Eg5 = Eg5 (Homo sapiens, UniProt P52732); assay: Inhibition of Eg5 ATPase activity; format: biochemical; conditions: read-out: Enzyme EC50
Eg5, sequence (P52732 whole entry): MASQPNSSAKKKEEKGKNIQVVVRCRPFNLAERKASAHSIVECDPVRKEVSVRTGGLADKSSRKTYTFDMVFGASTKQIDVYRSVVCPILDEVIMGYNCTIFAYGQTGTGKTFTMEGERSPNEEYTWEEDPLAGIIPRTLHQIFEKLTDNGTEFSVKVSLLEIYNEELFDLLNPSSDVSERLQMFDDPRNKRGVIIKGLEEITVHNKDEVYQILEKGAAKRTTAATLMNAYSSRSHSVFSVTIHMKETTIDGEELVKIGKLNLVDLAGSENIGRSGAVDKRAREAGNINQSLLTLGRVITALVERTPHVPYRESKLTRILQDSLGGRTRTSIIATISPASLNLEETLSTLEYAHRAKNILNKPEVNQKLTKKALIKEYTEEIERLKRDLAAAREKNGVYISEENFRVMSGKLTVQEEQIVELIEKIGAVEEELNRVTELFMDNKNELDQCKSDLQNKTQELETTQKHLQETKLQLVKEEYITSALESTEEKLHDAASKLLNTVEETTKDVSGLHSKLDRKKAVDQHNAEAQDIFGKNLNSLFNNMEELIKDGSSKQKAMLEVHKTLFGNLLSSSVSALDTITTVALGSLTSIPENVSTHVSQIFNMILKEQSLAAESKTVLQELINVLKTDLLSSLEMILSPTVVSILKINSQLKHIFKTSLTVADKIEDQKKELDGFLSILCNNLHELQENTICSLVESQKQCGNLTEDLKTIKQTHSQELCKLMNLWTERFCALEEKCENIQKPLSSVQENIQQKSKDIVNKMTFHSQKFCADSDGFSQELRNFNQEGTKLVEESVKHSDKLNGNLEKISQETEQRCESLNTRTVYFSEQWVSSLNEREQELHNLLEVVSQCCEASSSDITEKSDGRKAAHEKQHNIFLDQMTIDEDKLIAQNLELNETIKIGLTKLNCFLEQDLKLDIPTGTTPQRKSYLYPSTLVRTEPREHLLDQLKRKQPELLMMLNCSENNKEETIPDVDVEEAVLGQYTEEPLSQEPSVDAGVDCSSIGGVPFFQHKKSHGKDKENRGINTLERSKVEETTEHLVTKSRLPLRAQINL
Experimental: All experiments were performed as previously described. Data were analyzed using GraphPad Prism 5 and Microsoft Excel to obtain EC50 values. […] Each inhibitory concentration was measured in triplicate, and averaged data points ± SD are shown.

HeLa = assay: Antiproliferation assay (Alamar Blue), HeLa; format: cell-based; conditions: Homo sapiens, 48 h, HeLa cell line, two days
Experimental: as §1

HeLa cells = assay: Colony formation; format: cell-based; conditions: Homo sapiens, exposed 24 hours, cultured 10 days
Experimental: HeLa cells (5 × 10^2 cells/well) were seeded into 6-well plates and were treated with a series of gradient concentrations of YL001 for 24 hours, followed by washing and continual culture for 10 days. DMSO was used as a negative control, and STLC was used as a positive control. Cells were fixed with ethanol for more than 30 minutes and dyed with crystal violet for more than 30 minutes. Clones were counted with OpenCFU [54].

Compound	Binding Level (RU) (Eg5 motor domain)	Inhibition (50 μM) (human cancer cell lines)	also measured
Cc1ccc(SC(c2ccccc2)C(Cn2cncn2)C(=O)c2ccc(Br)cc2)cc1 (stereo not drawn) [AQ-714/41675002]	2.3 RU	32.65%	
COc1ccc(C(OCC2OC(n3cnc4c(N)ncnc43)C(O)C2O)(c2ccccc2)c2ccccc2)cc1 (stereo not drawn) [Compound 7170]			EC50 (Eg5): 18 µM; Kd (Eg5 motor domain; SPR Biacore T200, 25°C): 1.13 µM; EC50 (HeLa): 13.3 ± 1.32 µM
CC1(C)CC(=O)C2=C(C1)OC(N)=C(C#N)C21C(=O)N(Cc2ccccc2Cl)c2ccccc21 (stereo not drawn) [AM-807/14957480]	16.3 RU	30.76%	
CCOC(=O)C1=CN2C(C=C1)C(C(=C(C#N)C#N)C1CC1)C(c1ccccc1)C2C(=O)c1ccccc1 (stereo not drawn) [AG-205/33162003]	32.8 RU	60.89%	
CCOC(=O)C1C2c3ccccc3C(c3ccccc32)C1C(=O)OCC (stereo not drawn) [AE-842/33003047]	14.6 RU	–30.66%	
Cc1ccc(/C(O)=C2\C(=N)N(c3ccccc3)C3=C(C(=O)CCC3)C2c2ccccc2)cc1 (stereo not drawn) [AN-919/14547078]	56.6 RU	30.07%	
CC(=O)C1=NN(c2ccc(Cl)cc2)C(c2ccc3c(c2)OCO3)N1c1ccccc1 (stereo not drawn) [AK-778/11811129]	59.8 RU	9.38%	
OC(COCc1ccc2c(c1)OCO2)CN1CCN(C(c2ccccc2)c2ccccc2)CC1 (stereo not drawn) [AF-399/14739190]	36.9 RU	22.02%	
Cc1ccc(N2C(=N)/C(=C(/O)c3ccccc3)C(c3ccc([N+](=O)[O-])cc3)C3=C2CCCC3=O)cc1Cl (stereo not drawn) [AN-919/14545008]	57.7 RU	26.79%	
N[C@@H](CSC(c1ccccc1)(c1ccccc1)c1ccccc1)C(=O)O [STLC, S-Trityl-L-cysteine, reference compound]			EC50 (HeLa): 1.46 ± 0.06 µM; IC50 (HeLa cells): 1.25 µM
Cn1cc(C2C(=O)NC(c3ccccc3)=NN2C(=O)c2ccccc2)c2ccccc21 (stereo not drawn) [AG-227/37394007]	8.7 RU	97.78%	
CC(=O)Nc1sc2c(c1C(c1ccc(OC(F)F)cc1)N1CCOCC1)CCCC2 (stereo not drawn) [AF-399/41981012]	3.8 RU	14.85%	
Cc1ccc(N=C2S/C(=C/c3ccccc3OCC(=O)N3CCOCC3)C(=O)N2Cc2ccccc2)cc1 [AO-081/41364431]	56.4 RU	29.79%	
COC(=O)CN1C(c2ccccc2)=Nc2ccc(Br)cc2C1c1ccccc1 (stereo not drawn) [AG-690/36921098]	61.1 RU	21.81%	
CCc1cc(C(c2ccccc2F)N2CCOCC2)c(NC(=O)c2ccccc2)s1 (stereo not drawn) [AP-906/42853823]	60.7 RU	19.16%	
O=[N+]([O-])c1ccc(COc2ccccc2C2N(Cc3ccccc3)CCN2Cc2ccccc2)cc1 [AG-205/14740101]	27.7 RU	0.87%	
CN(C)CCN1C(=O)C(=O)/C(=C(/O)c2ccccc2)C1c1ccc2c(c1)OCO2 (stereo not drawn) [AG-205/13765047]	3.4 RU	–18.48%	
Cc1ccc(C2C3=C(CCCC3=O)N(c3ccc(Br)cc3)C(=N)/C2=C(/O)c2ccccc2)cc1 (stereo not drawn) [AN-919/14547113]	1.9 RU	21.56%	
Cc1ccc(-n2nnnc2/C(=C/N(C)C)C(=O)c2cccc(C(F)(F)F)c2)cc1 [AG-401/37257005]	18.8 RU	95.06%	
CC(=O)C1=NN(c2ccc(C)cc2)C(c2c[nH]c3ccccc23)N1c1ccc(C)cc1 (stereo not drawn) [AN-465/13570058]	7.4 RU	98.24%	
N=C1/C(=C(/O)c2ccccc2)C(c2ccccc2)C2=C(CCCC2=O)N1c1ccc(Br)cc1 (stereo not drawn) [AN-919/14547075]	69.6 RU	27.56%	
N#CC1=C(N)Oc2n[nH]c(-c3cccc4ccccc34)c2C1c1cccc(O)c1 (stereo not drawn) [AJ-292/15089069]	100.1 RU	58.97%	
Cc1ccc(N2C(=O)CSC23C(=O)N(CN2CCN(c4ccccc4)CC2)c2ccccc23)cc1C (stereo not drawn) [AG-205/13460017]	44.5 RU	30.78%	
NC1=C(C(=O)OCc2ccccc2)C2(C(=O)Nc3ccc(Br)cc32)C2=C(CCCC2=O)O1 (stereo not drawn) [AK-777/10805059]	20.7 RU	31.51%	
COC(=O)C1NC(c2ccc(F)cc2)(c2ccc(F)cc2)C2C(=O)N(c3ccc(Cl)cc3)C(=O)C12 (stereo not drawn) [AH-487/42271989]	31.9 RU	41.63%	
